Data: patent US4886517A, “Dyeing composition for human hair containing an azo dye” (L'Oreal, priority 1985, dated 1989)

How the values were obtained:
[1] = Solubility in 96° ethanol at 25° C.; format: physicochemical
Description: The compound of formula (II) also has the advantage of having a good solubility in the usual dye carriers.

Salmonella strains = experiment: Ames test (mutagenicity); format: biochemical
[2] = Dye fastness on hair, fastness to washing/shampooing; design: species or system human; details: compared to nitro benzene dyes

| Compound | solubility [1] [%] | mutagenicity (Ames test) (Salmonella strains; five strains of the Salmonella type, in the presence of a S-9 Mix microsomal activator) | stability to washing [2] | non-mutagenicity (Salmonella strains; strains and activation not stated for this compound) |
| --- | --- | --- | --- | --- |
| Nc1ccc(N=Nc2ccc(N(CCO)CCO)cc2)cc1 [(I)] | 1.3 | mutagenic to five strains of the Salmonella type | improved stability to washing |  |
| Cc1cc(N(CCO)CCO)ccc1N=Nc1ccc(N)cc1 [(II)] | 5.3 |  |  | non-mutagenicity has been demonstrated |
